Test results taken from patent US11702404B2, “GLP-1R modulating compounds” (priority 2019, dated 2023).
Where two headings read alike, the source gives them in different places.

What was measured:
[1] = Microsomal stability, human liver microsomes (predicted hepatic clearance); settings: predicted from in vitro microsomal stability data
GLP-1R = GLP-1R (Homo sapiens, UniProt P43220); experiment: GLP-1R activation: cAMP increase in CHO cells stably expressing GLP-1R; type: cell-based
[2] = cAMP increase, CHO cells stably expressing GLP-1R, 10 point dose response, 30 minutes incubation, read-out: EC50

Sequence of GLP-1R (P43220 24-463): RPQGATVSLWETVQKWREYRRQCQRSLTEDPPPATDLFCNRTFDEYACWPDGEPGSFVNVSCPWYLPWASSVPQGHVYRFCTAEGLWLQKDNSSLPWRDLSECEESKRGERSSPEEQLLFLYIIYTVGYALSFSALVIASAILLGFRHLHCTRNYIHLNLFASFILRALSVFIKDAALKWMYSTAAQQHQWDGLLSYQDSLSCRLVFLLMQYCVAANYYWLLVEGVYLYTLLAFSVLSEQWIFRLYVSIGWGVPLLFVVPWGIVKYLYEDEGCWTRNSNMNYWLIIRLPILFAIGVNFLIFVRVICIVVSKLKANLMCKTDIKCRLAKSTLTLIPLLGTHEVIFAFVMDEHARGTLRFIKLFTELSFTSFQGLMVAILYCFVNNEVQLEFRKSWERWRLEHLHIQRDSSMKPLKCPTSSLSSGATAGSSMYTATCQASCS

SMILES | Predicted Hepatic Clearance (Pred. Cl.) [1] | EC50 (GLP-1R; [2]) | EC50 (GLP-1R; EC50 (nM))
N#Cc1ccc(COc2nccc(-c3ccc(Cc4nc5ccc(C(=O)O)nc5n4CC4(CF)CC4)cc3F)n2)c(F)c1 [Example 302, 2-(4-(2-((4-cyano-2-fluorobenzyl)oxy)pyrimidin-4-yl)-3-fluorobenzyl)-3-((1-(fluoromethyl)cyclopropyl)methyl)-3H-imidazo[4,5-b]pyridine-5-carboxylic acid] | 2.67 mL/min/kg | 1.21 nM | –
COC[C@H](CF)n1c(Cc2cc(F)c(-c3cccc(OCc4ccc(C#N)cc4F)n3)cc2F)nc2ccc(C(=O)O)cc21 [Example 727] | 5.5 mL/min/kg | 46.3 nM | –
COCCn1c(Cc2cc(F)c(-c3cccc(OCc4cc(Cl)ccc4F)n3)cc2F)nc2ccc(C(=O)O)cc21 [Example 660] | 4.17 mL/min/kg | 50.5 nM | –
N#Cc1ccc(COc2cccc(-c3ccc(Cc4nc5ccc(C(=O)O)cc5n4CC4(c5cccnc5)CC4)c(F)c3)n2)c(F)c1 [Example 292, 2-(4-(6-((4-cyano-2-fluorobenzyl)oxy)pyridin-2-yl)-2-fluorobenzyl)-1-((1-(pyridin-3-yl)cyclopropyl)methyl)-1H-benzo[d]imidazole-6-carboxylic acid] | 9.5 mL/min/kg | 49.4 nM | –
COCCn1c(Cc2cc(F)c(-c3nc(OCc4ccc(C(F)F)cc4F)ccc3F)cc2F)nc2ccc(C(=O)O)cc21 [Example 661] | 4 mL/min/kg | 1.95 nM | –
O=C(O)c1cc(F)c2nc(Cc3cc(F)c(-c4cccc(OCc5ccc(C(F)(F)F)cc5F)n4)cc3F)n(Cc3ncco3)c2c1 [Example 783] | 1.83 mL/min/kg | 0.11 nM | –
COCCn1c(Cc2ccc(-c3cccc(OCc4cccc(-c5ccccc5)c4)n3)cc2F)nc2ccc(C(=O)O)cc21 [Example 504, 2-(4-(6-([1,1′-biphenyl]-3-ylmethoxy)pyridin-2-yl)-2-fluorobenzyl)-1-(2-methoxyethyl)-1H-benzo[d]imidazole-6-carboxylic acid] | 3.5 mL/min/kg | 28.5 nM | –
N#Cc1ccc(COc2nccc(-c3ccc(Cc4nc5c(F)cc(C(=O)O)cc5n4CC45CC(CO4)C5)cc3F)n2)c(F)c1 [Example 650] | 11 mL/min/kg | 19.6 nM | –
N#Cc1ccc(COc2ccc(F)c(-c3cc(F)c(Cc4nc5c(F)cc(C(=O)O)cc5n4C[C@@H]4CCO4)cc3F)n2)cn1 [Example 852, (S)-2-(4-(6-((6-cyanopyridin-3-yl)methoxy)-3-fluoropyridin-2-yl)-2,5-difluorobenzyl)-4-fluoro-1-(oxetan-2-ylmethyl)-1H-benzo[d]imidazole-6-carboxylic acid] | 4.5 mL/min/kg | 0.24 nM | –
N#Cc1ccc(COc2cccc(-c3cc(CO)c(Cc4nc5ccc(C(=O)O)cc5n4C[C@@H]4CCO4)cc3F)n2)c(F)c1 [Example 775] | 3.17 mL/min/kg | 0.1 nM | –
N#Cc1ccc(COc2cccc(-c3cc(F)c(Cc4nc5ccc(C(=O)O)cc5n4C[C@H]4COCCO4)cc3F)n2)c(F)c1 [Example 641] | 2.83 mL/min/kg | 65.9 nM | –
COCCn1c(Cc2ccc(-c3csc(OCc4ccc(C#N)cc4F)n3)cc2F)nc2ccc(C(=O)O)cc21 [Example 26, 2-(4-(2-((4-cyano-2-fluorobenzyl)oxy)thiazol-4-yl)-2-fluorobenzyl)-1-(2-methoxyethyl)-1H-benzo[d]imidazole-6-carboxylic acid] | 4.67 mL/min/kg | 115 nM | –
N#Cc1ccc(COc2cccc(-c3ccc(Cc4nc5ccc(C(=O)O)cc5n4CC4(n5ccnn5)CC4)c(F)c3)n2)c(F)c1 [Example 284, 1-((1-(1H-1,2,3-triazol-1-yl)cyclopropyl)methyl)-2-(4-(6-((4-cyano-2-fluorobenzyl)oxy)pyridin-2-yl)-2-fluorobenzyl)-1H-benzo[d]imidazole-6-carboxylic acid] | <1.83 mL/min/kg | 2.87 nM | –
COCCn1c(Cc2cc(F)c(-c3cccc(OCc4ccc(F)nc4)n3)cc2F)nc2ccc(C(=O)O)cc21 [Example 812] | 1.83 mL/min/kg | 24.9 nM | –
COCCn1c(Cc2ccc(-c3cccc(OCc4nccn4C)n3)cc2F)nc2ccc(C(=O)O)cc21 [Example 512, 2-(2-fluoro-4-(6-((1-methyl-1H-imidazol-2-yl)methoxy)pyridin-2-yl)benzyl)-1-(2-methoxyethyl)-1H-benzo[d]imidazole-6-carboxylic acid] | 7.67 mL/min/kg | 6560 nM | –
N#Cc1ccc(COc2nccc(-c3ccc(Cc4nc5c(F)cc(C(=O)O)cc5n4CC4(CF)CC4)c(F)c3)n2)c(F)c1 [Example 360, 2-(4-(2-((4-cyano-2-fluorobenzyl)oxy)pyrimidin-4-yl)-2-fluorobenzyl)-4-fluoro-1-((1-(fluoromethyl)cyclopropyl)methyl)-1H-benzo[d]imidazole-6-carboxylic acid] | <1.83 mL/min/kg | 0.94 nM | –
N#Cc1ccc(COc2cccc(-c3cc(F)c(Cc4nc5ccc(C(=O)O)cc5n4[C@@H]4C[C@H]4C(F)F)cc3F)n2)c(F)c1 [Example 720] | 5.33 mL/min/kg | 27.8 nM | –
COCCn1c(Cc2ccc(-c3cccc(OCc4ccc(C#N)cc4F)n3)c(C)c2)nc2ccc(C(=O)O)cc21 [Example 20, 2-{[4-[6-[(4-cyano-2-fluoro-phenyl)methoxy]-2-pyridyl]-3-methyl-phenyl]methyl}-3-(2-methoxyethyl)benzimidazole-5-carboxylic acid] | 2.33 mL/min/kg | – | 24.1 nM
COCCn1c(Cc2ccc(-c3cccc(OCc4cccc(C#N)c4)n3)cc2F)nc2ccc(C(=O)O)cc21 [Example 497, 2-(4-(6-((3-cyanobenzyl)oxy)pyridin-2-yl)-2-fluorobenzyl)-1-(2-methoxyethyl)-1H-benzo[d]imidazole-6-carboxylic acid] | 5.33 mL/min/kg | 1350 nM | –
COCCn1c(Cc2ccc(-c3cccc(OCc4ccc(C#N)cc4F)n3)cc2C#CCCO)nc2ccc(C(=O)O)cc21 [Example 255, 2-(4-(6-((4-cyano-2-fluorobenzyl)oxy)pyridin-2-yl)-2-(4-hydroxybut-1-yn-1-yl)benzyl)-1-(2-methoxyethyl)-1H-benzo[d]imidazole-6-carboxylic acid] | 8.17 mL/min/kg | 3.31 nM | –
N#Cc1ccc(COc2nccc(-c3cc(F)c(Cc4nc5ccc(C(=O)O)cc5n4CC4(CF)CC4)cc3F)n2)c(F)c1 [Example 431, 2-(4-(2-((4-cyano-2-fluorobenzyl)oxy)pyrimidin-4-yl)-2,5-difluorobenzyl)-1-((1-(fluoromethyl)cyclopropyl)methyl)-1H-benzo[d]imidazole-6-carboxylic acid] | 3.83 mL/min/kg | 0.73 nM | –
COCCn1c(Cc2ccc(-c3cccc(OCc4cccc(OC(F)F)c4OC)n3)cc2F)nc2ccc(C(=O)O)cc21 [Example 140, 2-(4-(6-((3-(difluoromethoxy)-2-methoxybenzyl)oxy)pyridin-2-yl)-2-fluorobenzyl)-1-(2-methoxyethyl)-1H-benzo[d]imidazole-6-carboxylic acid] | 9.33 mL/min/kg | 197 nM | –
